Measurements: the NIST ThermoML archive (doi:10.1016/j.fluid.2008.02.001)
Where “and” joins values, the source holds several entries; their conditions need not be identical. Equal entries are not always repeated.

Settings: Liquid, Transpiration method

CCCCOC(=O)C(C)(C)C [butyl 2,2-dimethylpropanoate]
Settings	vapor or sublimation pressure [kPa]
273.6 K	0.0462
273.9 K	0.04812
274.7 K	0.0517
276.5 K	0.06076
278.4 K	0.06784
282.6 K	0.09472
283.2 K	0.09954
285.6 K	0.1239
288.3 K	0.1447
288.7 K	0.1514
291.7 K	0.1872
293.2 K	0.2073
294.8 K	0.2343
297.8 K	0.2886
298.1 K	0.2847
300.8 K	0.3473
303.3 K	0.4149
303.9 K	0.429
307 K	0.5176
308.3 K	0.5552
309 K	0.596
313.3 K	0.7473

CCCCCC(=O)OC [methyl hexanoate]
Settings	vapor or sublimation pressure
280.7 K	0.1387 kPa
283.6 K	0.1707 kPa
284.6 K	0.1839 kPa
286.6 K	0.2147 kPa
287.6 K	0.2219 kPa
289.5 K	0.2598 kPa
290.5 K	0.2793 kPa and 0.2693 kPa
292.5 K	0.3111 kPa
293.3 K	0.3367 kPa
293.4 K	0.3489 kPa
293.5 K	0.3435 kPa
295.4 K	0.3851 kPa
296.4 K	0.4226 kPa
298.3 K	0.4594 kPa
298.4 K	0.4697 kPa
300.3 K	0.5403 kPa
303.3 K	0.6501 kPa
304.3 K	0.7261 kPa
308.3 K	0.8925 kPa
309.3 K	0.9193 kPa
312.3 K	1.147 kPa and 1.048 kPa
316.3 K	1.458 kPa
320.4 K	1.764 kPa
324.4 K	2.217 kPa
328.4 K	2.678 kPa
331.4 K	3.178 kPa

CCC(=O)OC(C)(C)CC [1,1-dimethylpropyl propanoate]
Settings	vapor or sublimation pressure [kPa]
273.9 K	0.1147
274.9 K	0.123
276.9 K	0.1423
278.9 K	0.1651
281 K	0.1902
283 K	0.2208
286 K	0.2725
289.1 K	0.3316
292.2 K	0.4061
295.2 K	0.4966
298.2 K	0.5971
301.2 K	0.7239
304.3 K	0.8484
307.4 K	1.025
310.4 K	1.237

CCCCOC(=O)C(C)CC (centres undefined) [butanoic acid, 2-methyl-, butyl ester]
Settings	vapor or sublimation pressure [kPa]
274.2 K	0.02305
276.2 K	0.02587
278.2 K	0.03181
280.2 K	0.0362
283.2 K	0.04723
288.1 K	0.06951
293.1 K	0.1043
298.1 K	0.1517
303.2 K	0.2142
308.2 K	0.3099
313.3 K	0.4305
316.2 K	0.5454
319.2 K	0.6694

CC(C)COC(=O)C(C)C [2-methylpropyl 2-methylpropanoate]
Settings	vapor or sublimation pressure [kPa]
274.2 K	0.1054
276.2 K	0.1253
278.2 K	0.1479
283.2 K	0.2118
288.2 K	0.2962
293.2 K	0.4346
298.2 K	0.6003
303.3 K	0.8274
308.4 K	1.137
311.2 K	1.363
313.4 K	1.497
316.2 K	1.851
319.2 K	2.224

COC(=O)CC(C)(C)C [methyl 3,3-dimethylbutanoate]
Settings	vapor or sublimation pressure [kPa]
273.9 K	0.3046
274.4 K	0.3169
275.9 K	0.3519
277.4 K	0.3954
278.7 K	0.436
279.5 K	0.4645
281.5 K	0.5226
282.5 K	0.5675
283.3 K	0.5937
285.5 K	0.6878
288.2 K	0.8223
288.6 K	0.8158
291.6 K	0.9977
293.2 K	1.131
294.6 K	1.195
297.7 K	1.436
298.2 K	1.533
301.8 K	1.854
303.2 K	2.042
303.8 K	2.089
306.9 K	2.498
308.2 K	2.737
309 K	2.783
313.2 K	3.591

CCCCC(=O)OC [methyl pentanoate]
Settings	vapor or sublimation pressure
274.9 K	0.3386 kPa
275.2 K	0.3442 kPa
278.2 K	0.4198 kPa
279.4 K	0.4589 kPa
281.2 K	0.5173 kPa
282.6 K	0.5608 kPa
284.2 K	0.6396 kPa
284.3 K	0.6 kPa
284.5 K	0.6182 kPa
285.5 K	0.6907 kPa
287.4 K	0.7539 kPa
288.4 K	0.7888 kPa and 0.7837 kPa
288.5 K	0.8195 kPa
288.7 K	0.8268 kPa
289.2 K	0.873 kPa
290.3 K	0.9304 kPa
292.4 K	1.029 kPa
293.3 K	1.09 kPa
293.4 K	1.125 kPa
294.5 K	1.227 kPa
296.2 K	1.327 kPa
297.5 K	1.511 kPa
298.3 K	1.517 kPa
299.2 K	1.615 kPa and 1.582 kPa
302.2 K	1.974 kPa and 1.937 kPa
305.2 K	2.273 kPa
308.2 K	2.653 kPa
311.2 K	3.11 kPa

CCCC(=O)OC [methyl butanoate]
Settings	vapor or sublimation pressure
274.3 K	1.06 kPa
276.4 K	1.292 kPa
278.2 K	1.397 kPa
279.4 K	1.492 kPa
281.3 K	1.627 kPa
281.6 K	1.705 kPa
283.4 K	1.854 kPa
283.7 K	1.965 kPa
285.5 K	2.102 kPa
285.8 K	2.24 kPa
288.3 K	2.537 kPa and 2.523 kPa and 2.466 kPa
290.3 K	2.927 kPa
291.2 K	3.085 kPa and 2.937 kPa
292.2 K	3.214 kPa
293.2 K	3.382 kPa
294.3 K	3.717 kPa
295.3 K	4.065 kPa
298.1 K	4.479 kPa
300.2 K	5.224 kPa
301.2 K	5.303 kPa
303.2 K	5.697 kPa

CCCC(=O)OC(C)(C)CC [1,1-dimethylpropyl butanoate]
Settings	vapor or sublimation pressure [kPa]
274.5 K	0.04772
276.5 K	0.05746
278.2 K	0.06508
278.6 K	0.06692
280.6 K	0.07832
282.6 K	0.09058
283.3 K	0.09732
285.6 K	0.1128
288.2 K	0.1456
288.7 K	0.1441
291.7 K	0.1788
293.2 K	0.2021
294.8 K	0.22
297.4 K	0.2678
298.2 K	0.2935
300.4 K	0.3315
303.2 K	0.4074
303.5 K	0.402
306.5 K	0.4906
308.2 K	0.5588
309.5 K	0.5946

CCCCCCC(=O)OC [methyl heptanoate]
Settings	vapor or sublimation pressure [kPa]
278.1 K	0.03453
283.5 K	0.05365
286.4 K	0.06767
288.3 K	0.0791
290.3 K	0.09122
293.2 K	0.1164
296.2 K	0.1424
298.2 K	0.1642
300.3 K	0.1892
303.1 K	0.2326
306.1 K	0.2838
308.2 K	0.3321
310.2 K	0.3804
313.2 K	0.4658

CCC(C)(C)OC(C)=O [1,1-dimethylpropyl acetate]
Settings	vapor or sublimation pressure [kPa]
273.7 K	0.3855
274 K	0.4017
275.5 K	0.4449
277.5 K	0.5063
278.6 K	0.5244
279.5 K	0.5659
281.6 K	0.6399
283.5 K	0.716
283.6 K	0.7353
286.6 K	0.878
288.4 K	0.9539
289.7 K	1.053
292.7 K	1.218
293.5 K	1.336
295.8 K	1.492
298.4 K	1.698
298.8 K	1.785
301.9 K	2.079
303.4 K	2.33
304.9 K	2.418
307.9 K	2.829
308.4 K	2.994
